Experiments:
Musca domestica = assay: Insecticidal activity against female Musca domestica (house fly) assessed as mortality compound topically applied to the abdomen measured per fly after 24 hr; format: functional
Tribolium castaneum = assay: Insecticidal activity against fourth-instar Tribolium castaneum (red flour beetle) assessed as inhibition of larval weight gain at 30 degC measured after 2 days by feeding method; format: functional

SMILES	LD50 (Musca domestica) [µg]	pLD50 (Musca domestica)	I50 (Tribolium castaneum) [ppm]
COP1(=S)NCC(c2ccc(Br)cc2)O1 (configuration not stated)	0.21	3.13	>100
COP1(=S)NCC(c2ccc(C)cc2)O1 (configuration not stated)	0.084	3.46	5.5
COP1(=S)NCC(c2ccccc2F)O1 (configuration not stated)	0.14	3.25	41
COP1(=S)NCC(c2cc(F)cc(F)c2)O1 (configuration not stated)	>1	–	>100
COP1(=S)NCC2(O1)C1CCC(C1)C2(C)C (configuration not stated)	>1	–	>100
COc1ccc(OC)c(C2CNP(=S)(OC)O2)c1 (configuration not stated)	>1	–	22
COP1(=S)NCC(c2cccc(C)c2)O1 (configuration not stated)	>1	–	15
COc1cc(C2CNP(=S)(OC)O2)cc(OC)c1OC (configuration not stated)	>1	–	>100
COP1(=S)NCC(c2ccc(C(C)C)cc2)O1 (configuration not stated)	0.42	2.81	5.2
COP1(=S)NCC(C2CC=CCC2)O1 (configuration not stated)	>1	–	>100
COP1(=S)NCC(c2c(Cl)cccc2Cl)O1 (configuration not stated)	>1	–	49
COP1(=S)NCC(c2ccccc2C(F)(F)F)O1 (configuration not stated)	>1	–	>100
COP1(=S)NCC(c2ccc3ccccc3c2)O1 (configuration not stated)	0.64	–	11
COP1(=S)NCC(C)(c2cccc3ccccc23)O1 (configuration not stated)	>1	–	>100
COP1(=S)NCC(C)(c2ccccc2)O1 (configuration not stated)	0.88	–	>100
COP1(=S)NCC2(CC3CCC2(C)C3(C)C)O1 (configuration not stated)	>1	–	>100
COP1(=S)NCC(c2ccc(Cl)cc2Cl)O1 (configuration not stated)	0.8	–	>100
COP1(=S)NCC(c2ccccc2)O1 (configuration not stated)	0.035	3.82	43
COP1(=S)NCC(c2cccc(Cl)c2Cl)O1 (configuration not stated)	>1	–	>100
COP1(=S)NCC(Cc2ccccc2)O1 (configuration not stated)	>1	–	>100
COP1(=S)NCC(c2cccc(Br)c2)O1 (configuration not stated)	0.2	3.19	59
COP1(=S)NCC(c2cccc([N+](=O)[O-])c2)O1 (configuration not stated)	>1	–	>100

SMILES	LD50 (Musca domestica) [µg]	pLD50 (Musca domestica)	I50 (Tribolium castaneum) [ppm]
COc1cccc(C2CNP(=S)(OC)O2)c1 (configuration not stated)	0.18	3.16	46
COP1(=S)NCC2(CCCc3ccccc32)O1 (configuration not stated)	>1	–	>100
COP1(=S)NCC(c2ccc(F)cc2F)O1 (configuration not stated)	0.35	–	>100
COP1(=S)NCC(c2ccccc2C)O1 (configuration not stated)	0.27	2.95	35
COP1(=S)NCC(c2ccccc2Br)O1 (configuration not stated)	0.5	2.79	49
COP1(=S)NCC2(CCCCC2)O1 (configuration not stated)	>1	–	>100
COc1cccc(C2CNP(=S)(OC)O2)c1OC (configuration not stated)	0.53	–	6.6
COP1(=S)NCC(C)(c2ccccc2F)O1 (configuration not stated)	1.26	–	>100
COP1(=S)NCC(C)(c2cccc(Br)c2)O1 (configuration not stated)	0.29	–	>100
COc1cccc(C2(C)CNP(=S)(OC)O2)c1 (configuration not stated)	>1	–	>100
COP1(=S)NCC(c2ccc3c(c2)OCO3)O1 (configuration not stated)	>1	–	>100
COP1(=S)NCC(c2cc(Cl)cc(Cl)c2)O1 (configuration not stated)	>1	–	>100
COP(=S)(OC)Oc1ccc([N+](=O)[O-])c(C)c1 [FENITROTHION]	0.051	–	4.7
COP1(=S)NCC(c2ccc(C)cc2C)O1 (configuration not stated)	0.73	–	33
COP1(=S)NCC(c2ccccc2)(C(C)C)O1 (configuration not stated)	>1	–	>100
COP1(=S)NCC(c2cccc(Oc3ccccc3)c2)O1 (configuration not stated)	>1	–	>100
COP1(=S)NCC(c2cc(C)ccc2C)O1 (configuration not stated)	0.23	–	84
COP1(=S)NCC(c2cccc(Cl)c2)O1 (configuration not stated)	0.24	3.04	>100
COP1(=S)NCC(c2cccc3ccccc23)O1 (configuration not stated)	0.68	–	25
COP1(=S)NCC(C)(c2cccc(C)c2)O1 (configuration not stated)	>1	–	>100
COP1(=S)NCC(C2CCCCC2)O1 (configuration not stated)	>1	–	>100
CCOC(OCC)C1(c2ccccc2)CNP(=S)(OC)O1 (configuration not stated)	>1	–	>100

SMILES	LD50 (Musca domestica) [µg]	pLD50 (Musca domestica)	I50 (Tribolium castaneum) [ppm]
COP1(=S)NCC(c2ccc(F)cc2)O1 (configuration not stated)	0.083	3.47	>100
COP1(=S)NCC(c2ccc(Cl)cc2)O1 (configuration not stated)	0.16	3.22	>100
COc1cc(OC)cc(C2CNP(=S)(OC)O2)c1 (configuration not stated)	1.12	–	>100
COP1(=S)NCC2(CCCC(C)C2)O1 (configuration not stated)	>1	–	>100
COP1(=S)NCC(c2ccc([N+](=O)[O-])cc2)O1 (configuration not stated)	>1	–	>100
COP1(=S)NCC(c2ccc(Cl)c(Cl)c2)O1 (configuration not stated)	>1	–	>100
COP1(=S)NCC(c2cccc(F)c2F)O1 (configuration not stated)	>1	–	>100
CCc1ccc(C2CNP(=S)(OC)O2)cc1 (configuration not stated)	0.22	3.07	3.7
COc1ccc(C2CNP(=S)(OC)O2)cc1OC (configuration not stated)	>1	–	>100
COP1(=S)NCC(c2ccc(F)c(F)c2)O1 (configuration not stated)	0.59	–	>100
COP1(=S)NCC(c2ccc(-c3ccccc3)cc2)O1 (configuration not stated)	>1	–	62
COP1(=S)NCC(c2ccccc2)(c2ccccc2)O1 (configuration not stated)	>1	–	>100
COP1(=S)NCC(c2ccc(C(F)(F)F)cc2)O1 (configuration not stated)	>1	–	>100
COP1(=S)NCC(C(C)c2ccccc2)O1 (configuration not stated)	>1	–	>100
COP1(=S)NCC(CCc2ccccc2)O1 (configuration not stated)	>1	–	>100
COc1ccccc1C1CNP(=S)(OC)O1 (configuration not stated)	>1	–	41
COP1(=S)NCC(c2c(F)cccc2F)O1 (configuration not stated)	0.82	–	>100
COP1(=S)NCC(c2cccc(C(F)(F)F)c2)O1 (configuration not stated)	>1	–	>100
COP1(=S)NCC(c2cccc(F)c2)O1 (configuration not stated)	0.16	3.19	>100
COP1(=S)NCC(c2ccccc2Cl)O1 (configuration not stated)	0.53	2.7	72
COP1(=S)NCC2(Cc3ccccc3C2)O1 (configuration not stated)	>1	–	>100
COP1(=S)NCC(c2cc(F)ccc2F)O1 (configuration not stated)	0.32	–	>100

Reference: ChEMBL document CHEMBL3045238, “Structure-Activity Studies of Insecticidal 2-Methoxy-1, 3, 2-oxazaphospholidine 2-Sulfides against Musca domestica and Tribolium castaneum” (J Pestic Sci, 1990)
